In brackets after ≈: the same amount, converted by molar mass.
Test: Toxicity in Artemia salina
Format: organism-based
Conditions: in vivo, read-out: LD50 (the source's name)

Compound: CC(=O)OC[C@@H](C)C1=C(O)C(=O)[C@@]2(C)C/C=C(\C)CC/C=C(\C)CC[C@H](O)/C(C)=C/C[C@H]12 [FUSAPROLIFERIN]
- LC50: 0.4 µg/mL (≈ 0.9 µM)

Reference: ChEMBL document CHEMBL1151676, “Structure and absolute stereochemistry of fusaproliferin, a toxic metabolite from Fusarium proliferatum” (J Nat Prod, 1996)
